This note sets out measurements from patent publication US7345009B2, “Substituted 4-hetaryl-pyrazolines as pest control agents” (Bayer CropScience AG, priority 2002, dated 2008).

The term chromatographic logP denotes a lipophilicity value derived from retention on a column.

Each structure is given as a SMILES string.

Data set [1] concerns caterpillars of the cotton bud worm (Heliothis armigera). The experiment in a line: Heliothis armigera test (Example A). The format is in vivo. As to conditions: 500 ppm active compound; after 7 days; soya bean shoots dipped. The method, then: (§1) Solvent: 7 parts by weight of dimethylformamide
(§2) Emulsifier: 2 parts by weight of alkylaryl polyglycol ether
(§3) To produce a suitable preparation of active compound, 1 part by weight of active compound is mixed with the stated amounts of solvent and emulsifier, and the concentrate is diluted with emulsifier-containing water to the desired concentration.
Soya bean shoots (Glycine max) are treated by being dipped into the preparation of active compound of the desired concentration and are populated with caterpillars of the cotton bud worm (Heliothis armigera) while the leaves are still moist.
(§4) After the desired period of time, the kill in % is determined. 100% means that all caterpillars have been killed; 0% means that none of the caterpillars have been killed.

Data set [2] deals with larvae of the mustard beetle (Phaedon cochleariae). The data set is described as follows: Phaedon larvae test (Example C). The format is in vivo. To be noted: 500 ppm active compound; after 7 days; cabbage leaves dipped. The method, then: Phaedon larvae Test Solvent: 7 parts by weight of dimethylformamide Emulsifier: 2 parts by weight of alkylaryl polyglycol ether To produce a suitable preparation of active compound, 1 part by weight of active compound is mixed with the stated amounts of solvent and emulsifier, and the concentrate is diluted with emulsifier-containing water to the desired concentration. Cabbage leaves (Brassica oleracea) are treated by being dipped into the preparation of active compound of the desired concentration and are populated with larvae of the mustard beetle (Phaedon cochleariae) while the leaves are still moist.

The test system of data set [3] is caterpillars of the army worm (Spodoptera frugiperda). The data set is described as follows: Spodoptera frugiperda test (Example F). As to conditions: 500 ppm active compound; after 7 days; cabbage leaves dipped. The format is in vivo. Here is the method:
Spodoptera frugiperda Test
as §1, §2, §3
Cabbage leaves (Brassica oleracea) are treated by being dipped into the preparation of active compound of the desired concentration and are populated with caterpillars of the army worm (Spodoptera frugiperda) while the leaves are still moist.
as §4

A short description of data set [4]: logP determination by reversed-phase HPLC (EEC directive 79/831 Annex V.A8), pH 2.3. The format is physicochemical. To be noted: reversed-phase HPLC column (C18), HPLC C18, 43° C., Preparation Examples. Here is the method:
The logP values given in the tables and Preparation Examples above are determined in accordance with EEC directive 79/831 Annex V.A8 by HPLC (High Performance Liquid Chromatography) using a reversed-phase column (C 18). Temperature: 43° C.
The determination is carried out in the acidic range at pH 2.3 using the mobile phases 0.1% aqueous phosphoric acid and acetonitrile; linear gradient from 10% acetonitrile to 90% acetonitrile.
Calibration is carried out using unbranched alkan-2-ones (of 3 to 16 carbon atoms) with known logP values (determination of the logP values by retention times using linear interpolation between two successive alkanones).

Data set [5] concerns caterpillars of the diamondback moth (Plutella xylostella). The experiment in a line: Plutella test, cabbage leaf dip (Example D). The format is in vivo. As to conditions: 500 ppm active compound; after 7 days; cabbage leaves dipped. Here is the method:
as §1, §2, §3
Cabbage leaves (Brassica oleracea) are treated by being dipped into the preparation of active compound of the desired concentration and are populated with caterpillars of the diamondback moth (Plutella xylostella) while the leaves are still moist.
as §4

Data set [6] has as its system caterpillars of the army worm (Spodoptera exigua). The experiment in a line: Spodoptera exigua test (Example E). To be noted: 500 ppm active compound; after 7 days; cabbage leaves dipped. The format is in vivo. Here is the method: as §1, §2, §3
Cabbage leaves (Brassica oleracea) are treated by being dipped into the preparation of active compound of the desired concentration and are populated with caterpillars of the army worm (Spodoptera exigua) while the leaves are still moist.
as §4

Data set [7] deals with Heliothis virescens caterpillars. The experiment in a line: Heliothis virescens test (Example B). The format is in vivo. As to conditions: 500 ppm active compound; after 7 days; soya bean shoots dipped. The method, then:
as §1, §2, §3
Soya bean shoots (Glycine max) are treated by being dipped into the preparation of active compound of the desired concentration and are populated with Heliothis virescens caterpillars while the leaves are still moist.
as §4

`Cc1nnn(C2CN(C(=O)N(CC#N)c3ccc(OC(F)(F)F)cc3)N=C2c2ccc(Cl)cc2)n1` (centres unmarked) [Example 2, N-cyanomethyl-N-trifluoromethoxy-3-(4-chlorophenyl)-4-(5-methyltetrazol-2-yl)-4,5-dihydro-1-pyrazolecarboxanilide]: the kill in data set [1], in data set [2], in data set [3], in data set [5] and in data set [6] was 100% each time. For the same compound, the chromatographic logP in data set [4] was found to be 3.68.

The compound `Cn1nnc(CC(=O)c2ccc(Cl)cc2)n1` [2-(2-methyltetrazol-5-yl)-4′-chloroacetophenone] came in with a chromatographic logP in data set [4] of 2.03.

`Cn1nnnc1CC(=O)c1ccc(Cl)cc1` [2-(1-methyltetrazol-5-yl)-4′-chloroacetophenone] came in with a chromatographic logP in data set [4] of 1.78.

On to `Cn1nnc(C2CNN=C2c2ccc(Cl)cc2)n1` (centres unmarked) [3-(4-chlorophenyl)-4-(2-methyltetrazol-5-yl)-4,5-dihydro-1H-pyrazole], for which the chromatographic logP in data set [4] was 1.67.

`Cc1nnc(C2CNN=C2c2ccc(Cl)cc2)s1` (centres unmarked) [3-(4-chlorophenyl)-4-(2-methyl-1,3,4-thiadiazol-5-yl)-4,5-dihydro-1H-pyrazole] displayed a chromatographic logP in data set [4] of 1.77.

The compound `Cc1nnn(C2CNN=C2c2ccc(Cl)cc2)n1` (centres unmarked) [3-(4-chlorophenyl)-4-(5-methyltetrazol-2-yl)-4,5-dihydro-1H-pyrazole] showed a chromatographic logP in data set [4] of 2.11.

For `O=C(Cc1nn[nH]n1)c1ccc(Cl)cc1` [2-tetrazol-5-yl-4′-chloroacetophenone], the chromatographic logP in data set [4] was found to be 1.44.

On to `Cc1nnc(C2CN(C(=O)Nc3ccc(OC(F)(F)F)cc3)N=C2c2ccc(Cl)cc2)s1` (centres unmarked) [Example 4, N-(4-trifluoromethoxy)-3-(4-chlorophenyl)-4-(5-methyl-1,3,4-thiadiazol-2-yl)-4,5-dihydro-1-pyrazolecarboxanilide], for which the kill in data set [1], in data set [2], in data set [3], in data set [5] and in data set [6] was 100% each time. For the same compound, the chromatographic logP in data set [4] is 3.77.

As for `Cc1nnnn1CC(=O)c1ccc(Cl)cc1` [2-(5-methyltetrazol-1-yl)-4′-chloroacetophenone], the chromatographic logP in data set [4] was 1.81.

With `Cc1nnn(C2CN(C(=O)Nc3ccc(OC(F)(F)F)cc3)N=C2c2ccc(Cl)cc2)n1` (centres unmarked) [Example 1, N-(4-trifluoromethoxy)-3-(4-chlorophenyl)-4-(5-methyltetrazol-2-yl)-4,5-dihydro-1-pyrazolecarboxanilide], the kill in data set [2], in data set [3], in data set [7], in data set [5] and in data set [6] was 100% throughout. For the same compound, the chromatographic logP in data set [4] turned out to be 4.

`Cc1nnn(CC(=O)c2ccc(Cl)cc2)n1` [2-(5-methyltetrazol-2-yl)-4′-chloroacetophenone] registered a chromatographic logP in data set [4] of 2.14.
